Experimental findings from patent US9108947B2, “Inhibitors of the Renal Outer Medullary Potassium channel” (Merck Sharp & Dohme Corp., priority 2011, dated 2015) are described below.

The target in one assay is hROMK (hKir1.1) (Homo sapiens (Human), UniProt P48048). Briefly: Thallium Flux Assay (ROMK channel functional thallium flux, FLIPR-Tetra). Conditions: HEK293 cells stably expressing hROMK (hKir1.1); 30 min compound incubation. In kind it is cell-based. The source says: (§1) Several assays may be used to measure functional inhibition of the ROMK channel by compounds of the instant invention. One assay that can be used is an electrophysiology assay that measures the electrical current that is generated as potassium permeates through the channel. Another ROMK functional assay makes use of the ability of thallium to permeate through open ROMK channels and increase the fluorescence of a dye previously loaded into the cells. Under control conditions, cells loaded with dye and exposed to thallium-containing medium display a time-dependent increase in fluorescence, the rate of which depends on number of functional channels. When cells are incubated in the presence of a channel inhibitor, the increase in fluorescence is attenuated in a concentration-dependent manner, and IC50 values of inhibition by compounds can be accurately determined. This assay has been established with cell lines expressing either human, or rat ROMK channels, and operates in 384-well format.
hROMK (hKir1.1), sequence (P48048 whole entry): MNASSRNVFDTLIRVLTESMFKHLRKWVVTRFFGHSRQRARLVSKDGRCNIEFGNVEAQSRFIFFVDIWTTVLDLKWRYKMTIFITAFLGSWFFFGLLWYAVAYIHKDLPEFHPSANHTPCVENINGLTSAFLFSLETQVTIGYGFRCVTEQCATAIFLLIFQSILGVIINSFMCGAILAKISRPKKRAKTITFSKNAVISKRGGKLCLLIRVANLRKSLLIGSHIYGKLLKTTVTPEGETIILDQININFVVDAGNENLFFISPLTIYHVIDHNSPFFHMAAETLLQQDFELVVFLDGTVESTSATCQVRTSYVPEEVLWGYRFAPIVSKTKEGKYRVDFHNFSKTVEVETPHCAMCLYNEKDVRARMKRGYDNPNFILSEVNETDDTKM
HEK293 cells stably expressing hROMK (hKir1.1) were grown at 37° C. in a 10% CO2 humidified incubator in complete growth media: Dulbecco's Modified Eagle Medium supplemented with non-essential amino acids, Penicillin/Streptomycin/Glutamine, G418 and FBS. At >80% confluency, the media was aspirated from the flask and the sample was rinsed with 10 ml Calcium/Magnesium-free PBS. […] To dislodge the cell, the side of the flask was gently banged with a hand. The cells were triturated completely and then transferred to 25 ml complete media. The sample was then centrifuged at 1,500 rpm for 6 minutes, followed by resuspension in complete growth media and then cell concentration was determined. […] Under ideal growth conditions and appropriate tissue culture practices, this cell line is stable for 40-45 passages.
• FluxOR™ Reagent (Component A) • FluxOR™ Assay Buffer (Component B)—10× Concentrate • PowerLoad™ Concentrate (Component C)—100× Concentrate • Probenecid (Component D) Lyophilized sample is kept at −20° C. Water soluble, 100× after solubilization in 1 ml water. […] Store at 4° C. • Thallium sulfate (Tl2SO4) Concentrate (Component G)—50 mM in water. […] Can be stored at room temperature • Stimulant Buffer (prepared at 5× final concentration in 1× FluxOR™Chloride-Free Buffer): 7.5 mM Thallium sulfate and 0.75 mM Potassium sulfate (to give a final assay concentration of 3 mM Thallium 0.3 mM Potassium). Store at 4° C. when not in use. If kept sterile, this solution is good for months. Assay Protocol—
The ROMK channel functional thallium flux assay is performed in 384 wells, using the FLIPR-Tetra instrument. HEK-hKir1.1 cells are seeded in Poly-D-Lysine microplates and kept in a 37° C.-10% CO2 incubator overnight. On the day of the experiment, the growth media is replaced with the FluxOR™ reagent loading buffer and incubated, protected from light, at ambient temperature (23-25° C.) for 90 min. The loading buffer is replaced with assay buffer±test compound followed by 30 min incubation at ambient temperature, where the Thallium/Potassium stimulant is added to the microplate.
• 1. Seed HEK-hKir1.1 cells (50 μl at 20,000 cells/well) in 384-well PDL coated Microplates • 2. Allow cells to adhere overnight in humidified 37° C./10% CO2 incubator • 3. Completely remove cell growth media from microplate and replace with 25 μl loading buffer • 4. Incubate Microplate at room temperature, protected form light, for 90 min • 5. Remove loading buffer and replace with 25 μl 1× Assay Buffer±test compound. • 6. Incubate microplate at room temperature, protected form light, for 30 min • 7. […] Excitation=400 nm, Emission=460 & 580 nm. Collect data for 10 min. Data Calculation—
The fluorescence intensity of wells containing 3 μM of a standard control ROMK inhibitor of the present invention is used to define the ROMK-sensitive component of thallium flux. Fluorescence in the presence of test compounds is normalized to control values to provide % fluorescence change.

For a further assay, the target named is Kir1.1 (ROMK1) (Homo sapiens (Human), UniProt P48048). Briefly: Electrophysiology Assay (whole cell voltage clamp, IonWorks Quattro). The assay is classed as cell-based.
Kir1.1 (ROMK1), sequence (P48048 whole entry, species assumed): as the sequence (P48048 whole entry) above
Excerpt: as §1
Chinese hamster ovary cells stably expressing Kir1.1 channels were maintained in T-75 flasks in cell culture media in a humidified 10% CO2 incubator at 37° C. Prior to an experiment, Kir1.1 expression was induced by overnight incubation with 1 mM sodium butyrate. […] After centrifugation, the cell pellet was resuspended in approximately 4.0 ml of bath solution and placed in the IonWorks® instrument. The intracellular solution consisted of (in mM): 80 K gluconate, 40 KCl, 20 KF, 3.2 MgCl2, 3 EGTA, 5 Hepes, pH 7.4. Electrical access to the cytoplasm was achieved by perforation in 0.13 mg/ml amphotericin B for 4 minutes.
Voltage protocols and current recordings were performed using the IonWorks® HT software/hardware system. Currents were sampled at 1 kHz. No correction for liquid junction potentials was used. The test pulse, consisting of a 100 ms step to 0 mV from a holding potential of −70 mV, followed by a 100 ms voltage ramp from −70 mV to +70 mV, was applied before and after a 6 minutes compound incubation period. Test compounds were prepared by diluting DMSO stock solutions into the bath solution at 3× the final concentration and placed in the instrument in 96-well polypropylene plates. Current amplitudes were measured using the IonWorks® software.
A general note: The patch-clamp technique gives a direct electrical read-out from membranes.

[1] abbreviates: Chinese hamster ovary cells stably expressing Kir1.1, block during voltage step to 0 mV, 6 minutes compound incubation, read-out: EP Assay IC50.

Where two headings read alike, the source gives them in different places.

Regarding `Cc1c(C(CO)NCC2CCCN2C[C@H](O)c2ccc3c(c2C)COC3=O)ccc2c1COC2=O` (stereo partly drawn) [Example 4, 5-{(1R)-1-Hydroxy-2-[2-({[2-hydroxy-1-(4-methyl-1-oxo-1,3-dihydro-2-benzofuran-5-yl)ethyl]amino}methyl)pyrrolidin-1-yl]ethyl}-4-methyl-2-benzofuran-1(3H)-one], the figures for the IC50 at hROMK (hKir1.1) and at Kir1.1 (ROMK1) (setting [1]) were 523 nM and 278 nM, respectively.
For `Cc1c(C(CO)NCC2CCCCN2C[C@H](O)c2ccc3c(c2C)COC3=O)ccc2c1COC2=O` (stereo partly drawn) [Example 6, 5-{(1R)-1-Hydroxy-2-[2-({[2-hydroxy-1-(4-methyl-1-oxo-1,3-dihydro-2-benzofuran-5-yl)ethyl]amino}methyl)piperidin-1-yl]ethyl}-4-methyl-2-benzofuran-1(3H)-one] the same measures were 143 nM and 446 nM.
Consider `Cc1c([C@@H](O)CN2CCCC2CNS(=O)(=O)c2ccc(-n3cnnn3)cc2)ccc2c1COC2=O` (stereo partly drawn) [Example 19, N-((1-((R)-2-Hydroxy-2-(4-methyl-1-oxo-1,3-dihydroisobenzofuran-5-yl)ethyl)pyrrolidin-2-yl)methyl)-4-(1H-tetrazol-1-yl)benzenesulfonamide], for which the IC50 against hROMK (hKir1.1) is 206 nM; on Kir1.1 (ROMK1) (setting [1]), 245 nM.
For the compound `Cc1c([C@@H](O)CNC2CCCN(c3ccc(C#N)cn3)C2)ccc2c1COC2=O` (stereo partly drawn) [Example 20, 6-(3-((R)-2-Hydroxy-2-(4-methyl-1-oxo-1,3-dihydroisobenzofuran-5-yl)ethylamino)piperidin-1-yl)nicotinonitrile], the results for the IC50 against hROMK (hKir1.1) and on Kir1.1 (ROMK1) were 265 nM and 52 nM, respectively.
For the compound `Cc1c([C@@H](O)CN2CCC(CNc3ccc(C#N)cn3)(c3ccccc3)C2)ccc2c1COC2=O` (stereo partly drawn) [Example 22, 6-((1-((R)-2-Hydroxy-2-(4-methyl-1-oxo-1,3-dihydroisobenzofuran-5-yl)ethyl)-3-phenylpyrrolidin-3-yl)methylamino)nicotinonitrile], the IC50 on hROMK (hKir1.1) amounted to 808 nM; on Kir1.1 (ROMK1) (setting [1]), 340 nM.
In the same order, the values of `Cc1c([C@@H](O)CN2CC[C@@H](NCC(O)c3ccc(C#N)cn3)C2)ccc2c1COC2=O` (stereo partly drawn) [Example 10, 6-(1-Hydroxy-2-((R)-1-((R)-2-hydroxy-2-(4-methyl-1-oxo-1,3-dihydroisobenzofuran-5-yl)ethyl)pyrrolidin-3-ylamino)ethyl)nicotinonitrile] are 504 nM and 2060 nM.
For `Cc1c([C@@H](O)CN2CCCC2CNc2ccc(C#N)cn2)ccc2c1COC2=O` (stereo partly shown) [Example 18] the same measures were 534 nM and 65 nM.
For `Cc1c([C@@H](O)CNC2C[C@H]3C[C@@H]2N(C[C@H](O)c2ccc4c(c2C)COC4=O)C3)ccc2c1COC2=O` (single isomer, unassigned) [Example 17A] the same measures were 500 nM and 1420 nM.

As usually defined, the IC50 is the concentration that inhibits the measured activity by half.
